# According to patent US11325883B2, “Functionalized N,N-dialkylamino phenyl ethers and their method of use” (Temple University—Of The Commonwealth System of Higher …, priority 2017, dated 2022):
# What was measured:
# [1] = tested on: Gaucher patient fibroblasts (L444P/L444P, GM08760); experiment: GPN induced calcium release phenotypic assay on Gaucher patient cells; format: cell-based, human; conditions: for Maximal % Change in GPN Response / EC50: Gaucher patient cells, 72 hours compound treatment; for Maximal % Change in GPN Response: GPN response with drug/without drug x100; for EC50: Homo sapiens, Fibroblast, 12-point curve in triplicate
# Source text: Phenotypic Assay: A phenotypic cellular assay utilizing lysosomal storage disorder (LSD) patient derived cells was developed to identify compounds with disease modifying activity to reverse or attenuate the disease phenotype to non-disease levels. […] This functional readout of the LSD diseased state was developed into a high throughput screening assay.
# Disruption of lysosomal calcium homeostasis has been linked to the pathophysiology of lysosomal storage disorders including Gaucher disease (Lloyd-Evans, E, Morgan A J, He X, Smith D A, Elliot-Smith E, Sillence D J, Churchill G C, Schuchman E H, Galione A, Platt F M. (2008) Niemann-Pick disease type C1 is a sphingosine storage disease that causes deregulation of lysosomal calcium. Nat Med. 14(11):1247-55. Lloyd-Evans E, Platt F M. (2011) Lysosomal Ca(^2+) homeostasis: role in pathogenesis of lysosomal storage diseases. Cell Calcium. 50(2):200-205. Morgan, A J, Platt, F M, Lloyd-Evans, E and Galione, A (2011) Molecular mechanism of endolysosomal Ca^2+ signaling in health and disease. Biochem. J. 439:349-374.). Calcium release from acidic lysosomal stores can be induced by addition of Gly-Phe-β-napthylamide (GPN), a substrate of cathepsin C, which upon hydrolysis, produces osmotic lysis of lysosomes and release of calcium specifically from lysosomal acidic stores into the cytosol. The increase of intracellular calcium released from lysosomes can be detected with cell membrane permeable calcium sensitive indicators.
# (§1) Cells (800 cells/well) were plated with a MultiFlo dispenser (BioTek) and cultured for 24 h at 37° C., 5% CO2. The screening compounds were then added to cells under sterile conditions and continued in culture for 72 hours. Cells were loaded with Screen Quest™ Fluo-8 No Wash Calcium mix (ATT Bio) and analyzed for changes in response to GPN. The data from each well were normalized with basal fluorescence by dividing the maximum fluorescence over the entire real time reading by the initial basal fluorescence. […] EC50 and Hill slope values are determined using a four-parameter dose-response (variable slope) equation in GraphPad Prism. The % change in GPN response is calculated as the ratio of GPN response measured in the presence of drug/GPN response measured in the absence of drug×100. […] The maximal % change in GPN response is calculated as the ratio of GPN response measured in the presence of drug/GPN response measured in the absence of drug×100.
# Gaucher patient fibroblasts (Coreill Institute, GM08760) were cultured in EMEM with 15% FBS, 1% Pen/Strep at 37° C./5% CO2. Wild-type patient fibroblasts (Coriell Institute, GM 005659) were used as a control cell line. Cells are plated with a MultiFlo dispenser (800 cells/well in 30 μL of complete growth media) in black/clear bottom 384-well plates and cultured for 24 hours at 37° C., 5% CO2. Compounds of the disclosure are then added to the cells (12 point dose response curve, 150 nM to 30 uM final compound concentration using a 5.0 μL of a 7× stock solution (1.05 μM to 210 μM)) under sterile conditions and continued in culture for 72 hours at 37° C., 5% CO2. For intracellular calcium measurements, media is removed and 20 μL of calcium dye mixture (Screen Quest™ Fluo-8 No Wash Calcium mix, ATT Bioquest) is added to each well, incubated for 30 minutes at 37° C., followed by 22° C. for 30 minutes.
# [2] = tested on: Wild-type patient fibroblasts (GM 005659); conditions: wild type cells
# Description: as §1
# Gaucher patient fibroblasts (Coreill Institute, GM08760) were cultured in EMEM with 15% FBS, 1% Pen/Strep at 37° C./5% CO2. Wild-type patient fibroblasts (Coriell Institute, GM 005659) were used as a control cell line. […] The data from each well were normalized with basal fluorescence by dividing the maximum fluorescence over the entire real time reading by the initial basal fluorescence.
Compound,Maximal % Change in GPN Response [1],EC50 [1],increase in calcium response ([1]; compared with 0.1% DMSO treated Gaucher patient cells),increase in GPN-induced calcium response [2]
"CN(C)CCOc1ccc(C(=O)C(CC2CC2)c2ccccc2-c2ccc(F)cc2)cc1 (centres unmarked) [Example 4, 3-cyclopropyl-1-(4-(2-(dimethylamino)ethoxy)phenyl)-2-(4′-fluoro-[1,1′-biphenyl]-2-yl)propan-1-one]",360%,0.475 µM,,
"CCC(C(=O)c1ccc(OCCN(C)C)cc1)c1ccccc1-c1ccc(F)cc1 (centres unmarked) [Example 5, 1-(4-(2-(dimethylamino)ethoxy)phenyl)-2-(4′-fluoro-[1,1′-biphenyl]-2-yl)butan-1-one]",630%,0.266 µM,,
"CN(C)CCOc1ccc(C(=O)Cc2ccccc2-c2ccc(F)cc2)cc1 [Example 1, 1-(4-(2-(Dimethylamino)ethoxy)phenyl)-2-(4′-fluoro-[1,1′-biphenyl]-2-yl)ethanone]",250%,3.6 µM,,
"CCCC(C(=O)c1ccc(OCCN(C)C)cc1)c1ccccc1-c1ccc(F)cc1 (centres unmarked) [Example 6, 1-(4-(2-(dimethylamino)ethoxy)phenyl)-2-(4′-fluoro-[1,1′-biphenyl]-2-yl)pentan-1-one]",410%,0.424 µM,,
"CNCCOc1ccc(C(=O)C(CC(C)C)c2ccccc2-c2ccc(F)cc2)cc1 (centres unmarked) [Example 9, 2-(4′-fluoro-[1,1′-biphenyl]-2-yl)-4-methyl-1-(4-(2-(methylamino)-ethoxy)phenyl)pentan-1-one]",617%,0.236 µM,,
"CC(C)CC(C(=O)c1ccc(OCCN(C)C)cc1)c1ccccc1-c1ccc(F)cc1 (centres unmarked) [Example 3, 1-(4-(2-(dimethylamino)ethoxy)phenyl)-2-(4′-fluoro-[1,1′-biphenyl]-2-yl)-4-methylpentan-1-one]",400%,0.185 µM,,
"CN(C)CCOc1ccc(C(=O)Cc2ccccc2-c2ccccc2Cl)cc1 [Example 2, 2-(2′-Chloro-[1,1′-biphenyl]-2-yl)-1-(4-(2-(dimethylamino)ethoxy)phenyl)ethanone]",160%,1.8 µM,,
"CCC(C(=O)c1ccc(OCCNC)cc1)c1ccccc1-c1ccc(F)cc1 (centres unmarked) [Example 7, 2-(4′-fluoro-[1,1′-biphenyl]-2-yl)-1-(4-(2-(methylamino)ethoxy)phenyl)butan-1-one]",515%,0.425 µM,,
"CC/C(=C(\c1ccccc1)c1ccc(OCCN(C)C)cc1)c1ccccc1 [Tamoxifen, reference compound]",,,200±50%,30+/−20%
"CCCC(C(=O)c1ccc(OCCNC)cc1)c1ccccc1-c1ccc(F)cc1 (centres unmarked) [Example 8, 2-(4′-fluoro-[1,1′-biphenyl]-2-yl)-1-(4-(2-(methylamino)ethoxy)phenyl)pentan-1-one]",330%,0.356 µM,,
